Measurements reported in US9403823B2, “Protein kinase inhibitors” (ORIBASE PHARMA, priority 2012, dated 2016).
Read-outs that look alike come from different tables or passages of the source. Marks after values point to notes of the source that are not given here.

Assays:
BRAF = target: T1, BRAF (Homo sapiens, UniProt P15056); assay: In vitro kinase assay (Z'-LYTE), BRAF; assay type: biochemical; conditions: read-out: % of inhibition of the kinase compared to the control
T1 construct: purchased Invitrogen
Method in brief: (§1)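 Z'-LYTE, HEPES pH 7.5/MgCl2/EGTA/BRIJ-35 buffer, 1% DMSO; cpd 100 nM (ABL, ABL T315I: 10 μM); ratiometric FRET read-out after protease development; % inhibition.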

EGFR (ErbB1) = target: T2, EGFR (ErbB1) (Homo sapiens, UniProt P00533); assay: In vitro kinase assay (Z'-LYTE), EGFR (ErbB1); assay type: biochemical; conditions: read-out: % of inhibition of the kinase compared to the control
T2 construct: purchased Invitrogen
Method in brief: as §1

EGFR (ErbB1) T790M L858R = target: T3, EGFR (ErbB1) T790M L858R (Homo sapiens, UniProt P00533, L858R/T790M); assay: In vitro kinase assay (Z'-LYTE), EGFR (ErbB1) T790M L858R; assay type: biochemical; conditions: read-out: % of inhibition of the kinase compared to the control
T3 construct: purchased Invitrogen
Method in brief: as §1

FGFR2 = target: T4, FGFR2 (Homo sapiens, UniProt P21802); assay: In vitro kinase assay (Z'-LYTE), FGFR2; assay type: biochemical; conditions: read-out: % of inhibition of the kinase compared to the control
T4 construct: purchased Invitrogen
Method in brief: as §1

KDR (VEGFR2) = target: T5, KDR (VEGFR2) (Homo sapiens, UniProt P35968); assay: In vitro kinase assay (Z'-LYTE), KDR (VEGFR2); assay type: biochemical; conditions: read-out: % of inhibition of the kinase compared to the control
T5 construct: purchased Invitrogen
Method in brief: as §1

PDGFRA (PDGFR alpha) = target: T6, PDGFRA (PDGFR alpha) (Homo sapiens, UniProt P16234); assay: In vitro kinase assay (Z'-LYTE), PDGFRA; assay type: biochemical; conditions: read-out: % of inhibition of the kinase compared to the control
T6 construct: purchased Invitrogen
Method in brief: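 Compounds at a single dose (100 nM; 10 μM for both ABL forms) were run in a fluorescence coupled-enzyme kinase format relying on differential protease sensitivity of phospho versus non-phospho peptide. Reaction progress was measured ratiometrically from the FRET pair.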

SRC = target: T7, SRC (Homo sapiens, UniProt P12931); assay: In vitro kinase assay (Z'-LYTE), SRC; assay type: biochemical; conditions: read-out: % of inhibition of the kinase compared to the control
T7 construct: purchased Invitrogen
Method in brief: as §1

ABL = target: T8, ABL (Homo sapiens, UniProt P00519); assay: In vitro kinase assay (Z'-LYTE), ABL; assay type: biochemical; conditions: read-out: % of inhibition of the kinase compared to the control
T8 construct: purchased Invitrogen
Method: (§2) 1) In Vitro Kinase Assays (Table 10 to Table 21)
(§3) The inhibitory activity of the compounds on several kinases including BRAF, EGFR (ErbB1), EGFR (ErbB1) T790M L858R, FGFR2, KDR (VEGFR2), PDGFRA (PDGFR alpha), SRC and other was evaluated by Invitrogen using the Z′-LYTE® technology. Briefly, the Z′-LYTE® biochemical assay employs a fluorescence-based, coupled-enzyme format and is based on the differential sensitivity of phosphorylated and non-phosphorylated peptides to proteolytic cleavage. The peptide substrate is labeled with two fluorophores—one at each end—that make up a FRET pair. A ratiometric method, which calculates the ratio (the Emission Ratio) of donor emission to acceptor emission after excitation of the donor fluorophore at 400 nm, is used to quantitate reaction progress.
(§4) The compounds are screened in 1% DMSO (final) in the well. For 10 point titrations, 3-fold serial dilutions are conducted from the starting concentration. All Peptide/Kinase Mixtures are diluted to a 2× working concentration in the appropriate Kinase Buffer. All ATP Solutions are diluted to a 4× working concentration in Kinase Buffer (50 mM HEPES pH 7.5, 0.01% BRIJ-35, 10 mM MgCl2, 1 mM EGTA). ATP Km apparent is previously determined using a Z′-LYTE® assay.
(§5) Each compound was incubated at a concentration of 100 nM (excepted to test the activity against ABL and ABL T315I for which the compounds were incubated at a concentration of 10 μM) and the tables 10 to 21 summarize the results obtained showing the inhibitory power of a compound.

ABL T315I = target: T9, ABL T315I (Homo sapiens, UniProt P00519, T315I); assay: In vitro kinase assay (Z'-LYTE), ABL T315I; assay type: biochemical; conditions: read-out: % of inhibition of the kinase compared to the control
T9 construct: purchased Invitrogen
Method: as §2, §3, §4, §5

A549 cell line = assay: In vitro cell proliferation assay (MTT), A549; assay type: cell-based; conditions: Homo sapiens, read-out: EC50, anti-proliferative activity
Method in brief: (§6)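 MTT readout of proliferation after 72 hr compound exposure; tumour lines 5×10^3 cells/well, HRMEC 1×10^4 cells/well; dose range 10 nM–3 μM, duplicates.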

HepG2 cell line = assay: In vitro cell proliferation assay (MTT), HepG2; assay type: cell-based; conditions: Homo sapiens, read-out: EC50, anti-proliferative activity
Method in brief: as §6

HT29 cell line = assay: In vitro cell proliferation assay (MTT), HT29; assay type: cell-based; conditions: Homo sapiens, read-out: EC50, anti-proliferative activity
Method: (§7) 2) In Vitro Cell Proliferation Assays (Table 22 to Table 35)
(§8) Cancer cell lines (5×10^3 cells per well) or HUVEC (1×10^4 cells per well) or HRMEC (1×10^4 cells per well) were distributed in 96-well plates and incubating in duplicate with escalating concentrations (10 nM to 3 μM) of compounds for 72 hr. Cell proliferation was measured using MTT (3[4,5-dimethylthiazol-2-yl]-2,5-diphenyltetrazolium bromide).

BxPC-3 cell line = assay: In vitro cell proliferation assay (MTT), BxPC-3; assay type: cell-based; conditions: Homo sapiens, read-out: EC50, anti-proliferative activity
Method: as §7, §8

H1975 cell line = assay: In vitro cell proliferation assay (MTT), H1975; assay type: cell-based; conditions: Homo sapiens, read-out: EC50, anti-proliferative activity
Method: as §7, §8

HuCCT1 cell line = assay: In vitro cell proliferation assay (MTT), HuCCT1; assay type: cell-based; conditions: Homo sapiens, read-out: EC50, anti-proliferative activity
Method: as §7, §8

HuH6 Clone 5 cell line = assay: In vitro cell proliferation assay (MTT), HuH6 Clone 5; assay type: cell-based; conditions: read-out: EC50, anti-proliferative activity
Method: as §7, §8

HuH7 cell line = assay: In vitro cell proliferation assay (MTT), HuH7; assay type: cell-based; conditions: Homo sapiens, Huh-7, 72 h; read-out: EC50, anti-proliferative activity
Method: as §7, §8

HUVEC = assay: In vitro cell proliferation assay (MTT), HUVEC; assay type: cell-based; conditions: Homo sapiens, 72 h, read-out: EC50, anti-proliferative activity
Method in brief: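 Anti-proliferative effects on human umbilical vein endothelial cells were assessed by an MTT (3[4,5-dimethylthiazol-2-yl]-2,5-diphenyltetrazolium bromide) readout. Cells (1×10^4 cells per well) in 96-well plates were incubated in duplicate for 72 hr with escalating test compound concentrations spanning 10 nM to 3 μM.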

PC3 cell line = assay: In vitro cell proliferation assay (MTT), PC3; assay type: cell-based; conditions: Homo sapiens, PC-3, 72 h; read-out: EC50, anti-proliferative activity
Method: as §7, §8

Caki-2 = assay: In vitro cell proliferation assay (MTT), Caki-2; assay type: cell-based; conditions: Homo sapiens, read-out: EC50, anti-proliferative activity
Method: as §7, §8

MDA-MB-231 cell line = assay: In vitro cell proliferation assay (MTT), MDA-MB-231; assay type: cell-based; conditions: Homo sapiens, MDA-MB-231, 72 h; read-out: EC50, anti-proliferative activity
Method in brief: as §6

HeLa cell line = assay: In vitro cell proliferation assay (MTT), HeLa; assay type: cell-based; conditions: Homo sapiens, 72 h, read-out: EC50, anti-proliferative activity
Method: as §7, §8

HRMEC cells = assay: In vitro cell proliferation assay (MTT), HRMEC; assay type: cell-based; conditions: read-out: EC50, anti-proliferative activity
Method: as §7, §8

HepG2 cells = assay: Human hepatocellular carcinoma mouse model (HepG2 xenograft); assay type: in vivo, athymic nude male mice; conditions: 20 mg/kg q.d. per os for 15 consecutive days; for Anti-tumor activity (Tumor Growth Inhibition—TGI): mice, HepG2 xenograft, end of study vs vehicle
Method: 3) In Vivo Studies (Table 36)
Human hepatocellular carcinoma mouse model was prepared by subcutaneously implanting HepG2 cells (1×10^7 cell/mL in sterile PBS), into the right flank of athymic nude male mice (HSD, 6-7 weeks old). When the tumor volume reached approximately 200 mm^3, mice were assigned randomly to either vehicle alone or ORB compounds treatment groups (six mice per group). Mice were treated with either vehicle (PEG400) or OR0720, OR0721, OR0811 (20 mg/kg q.d.; per os for 15 consecutive days).
Tumor volumes in mm^3 were determined three times a week with a digital caliper and calculated using the following formula: Tumor Volume (mm)=length (mm)×width (mm)×width (mm)×½. Body weight was measured three times a week, and mice were observed daily for monitoring signs of stress to detect possible toxicities. One-way ANOVA was used for statistical comparisons. Data were analyzed with Prism 5.0 b (GraphPad Software) by one-way ANOVA with Bonferroni post hoc. Tumor Growth Inhibition (TGI) is calculated as the percent decrease of tumor growth at the end of the study in the ORB compounds treatment groups in comparison to the vehicle alone treatment group.

T7 sequence (P12931 whole entry): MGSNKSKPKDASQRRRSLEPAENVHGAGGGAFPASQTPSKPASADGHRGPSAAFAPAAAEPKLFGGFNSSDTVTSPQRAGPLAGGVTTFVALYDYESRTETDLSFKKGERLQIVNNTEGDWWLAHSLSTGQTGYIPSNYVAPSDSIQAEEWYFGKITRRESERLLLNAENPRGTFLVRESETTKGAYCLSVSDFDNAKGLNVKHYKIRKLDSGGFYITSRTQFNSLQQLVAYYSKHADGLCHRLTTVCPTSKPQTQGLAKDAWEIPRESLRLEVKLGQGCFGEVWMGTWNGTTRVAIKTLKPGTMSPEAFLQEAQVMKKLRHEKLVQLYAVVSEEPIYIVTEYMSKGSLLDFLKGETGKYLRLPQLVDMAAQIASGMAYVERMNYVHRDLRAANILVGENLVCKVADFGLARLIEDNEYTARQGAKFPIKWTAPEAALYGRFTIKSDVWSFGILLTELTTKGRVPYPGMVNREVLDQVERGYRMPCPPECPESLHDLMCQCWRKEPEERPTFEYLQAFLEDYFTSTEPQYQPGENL
T5 sequence (P35968 20-1356): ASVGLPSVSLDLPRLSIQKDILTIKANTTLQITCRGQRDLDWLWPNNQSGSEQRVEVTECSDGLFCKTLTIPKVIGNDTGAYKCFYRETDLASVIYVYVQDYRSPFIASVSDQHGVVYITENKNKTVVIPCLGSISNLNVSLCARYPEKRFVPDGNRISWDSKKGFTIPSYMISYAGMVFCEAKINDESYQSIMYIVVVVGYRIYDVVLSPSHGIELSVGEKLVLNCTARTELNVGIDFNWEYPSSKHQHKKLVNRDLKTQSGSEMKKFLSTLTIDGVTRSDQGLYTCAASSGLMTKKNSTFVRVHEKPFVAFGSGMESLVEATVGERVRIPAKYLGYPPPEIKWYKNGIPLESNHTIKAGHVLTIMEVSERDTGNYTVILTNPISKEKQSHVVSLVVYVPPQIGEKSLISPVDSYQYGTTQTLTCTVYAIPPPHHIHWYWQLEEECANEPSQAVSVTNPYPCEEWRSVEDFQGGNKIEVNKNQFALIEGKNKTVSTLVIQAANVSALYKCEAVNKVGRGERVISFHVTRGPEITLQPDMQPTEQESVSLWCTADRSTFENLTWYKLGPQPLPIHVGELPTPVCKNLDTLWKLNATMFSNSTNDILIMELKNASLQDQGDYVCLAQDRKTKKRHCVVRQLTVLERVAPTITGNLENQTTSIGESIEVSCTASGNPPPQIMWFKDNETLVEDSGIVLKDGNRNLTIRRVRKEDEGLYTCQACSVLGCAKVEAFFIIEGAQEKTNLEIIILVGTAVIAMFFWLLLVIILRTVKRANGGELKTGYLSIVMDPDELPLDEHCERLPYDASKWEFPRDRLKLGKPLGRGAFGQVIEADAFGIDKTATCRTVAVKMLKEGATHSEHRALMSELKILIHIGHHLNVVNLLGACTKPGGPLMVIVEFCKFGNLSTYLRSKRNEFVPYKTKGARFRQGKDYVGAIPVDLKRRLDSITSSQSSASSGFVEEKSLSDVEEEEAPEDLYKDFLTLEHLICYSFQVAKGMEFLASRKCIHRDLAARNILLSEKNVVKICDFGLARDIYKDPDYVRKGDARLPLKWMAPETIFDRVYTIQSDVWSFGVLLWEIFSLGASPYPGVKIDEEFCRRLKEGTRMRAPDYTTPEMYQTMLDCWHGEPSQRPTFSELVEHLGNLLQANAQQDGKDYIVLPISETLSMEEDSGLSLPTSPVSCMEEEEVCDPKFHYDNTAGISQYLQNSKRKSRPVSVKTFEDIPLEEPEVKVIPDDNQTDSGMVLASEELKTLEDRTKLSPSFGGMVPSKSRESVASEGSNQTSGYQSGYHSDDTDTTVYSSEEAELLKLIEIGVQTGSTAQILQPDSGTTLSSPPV
T6 sequence (P16234 24-1089): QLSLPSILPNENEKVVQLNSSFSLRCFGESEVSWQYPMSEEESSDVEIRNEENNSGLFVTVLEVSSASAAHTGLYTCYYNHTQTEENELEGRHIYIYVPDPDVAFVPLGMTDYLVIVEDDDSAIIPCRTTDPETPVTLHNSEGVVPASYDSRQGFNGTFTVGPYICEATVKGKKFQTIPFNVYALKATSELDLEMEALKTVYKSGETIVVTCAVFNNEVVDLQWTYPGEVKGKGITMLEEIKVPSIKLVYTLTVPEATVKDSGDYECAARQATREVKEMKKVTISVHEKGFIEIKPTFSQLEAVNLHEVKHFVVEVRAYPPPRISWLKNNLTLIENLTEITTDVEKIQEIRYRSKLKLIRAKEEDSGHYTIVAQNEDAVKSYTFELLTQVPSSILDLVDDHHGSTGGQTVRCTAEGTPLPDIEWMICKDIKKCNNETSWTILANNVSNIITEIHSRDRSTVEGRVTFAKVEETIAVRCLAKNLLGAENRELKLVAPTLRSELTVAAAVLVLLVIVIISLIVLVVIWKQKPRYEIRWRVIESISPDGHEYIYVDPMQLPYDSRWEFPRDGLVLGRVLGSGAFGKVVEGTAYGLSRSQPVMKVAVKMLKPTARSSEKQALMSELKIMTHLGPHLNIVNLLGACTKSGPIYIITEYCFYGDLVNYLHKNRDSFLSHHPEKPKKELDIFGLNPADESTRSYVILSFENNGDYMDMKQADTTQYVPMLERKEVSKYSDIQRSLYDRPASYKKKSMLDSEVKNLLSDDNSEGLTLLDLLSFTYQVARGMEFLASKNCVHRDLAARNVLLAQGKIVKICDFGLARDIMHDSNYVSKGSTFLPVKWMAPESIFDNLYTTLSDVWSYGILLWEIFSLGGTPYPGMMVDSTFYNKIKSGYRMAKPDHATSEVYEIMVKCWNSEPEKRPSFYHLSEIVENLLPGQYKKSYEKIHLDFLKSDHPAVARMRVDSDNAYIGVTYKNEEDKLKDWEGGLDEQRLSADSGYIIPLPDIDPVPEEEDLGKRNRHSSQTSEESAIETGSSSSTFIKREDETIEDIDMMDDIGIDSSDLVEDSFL
T2 sequence (P00533 25-1210): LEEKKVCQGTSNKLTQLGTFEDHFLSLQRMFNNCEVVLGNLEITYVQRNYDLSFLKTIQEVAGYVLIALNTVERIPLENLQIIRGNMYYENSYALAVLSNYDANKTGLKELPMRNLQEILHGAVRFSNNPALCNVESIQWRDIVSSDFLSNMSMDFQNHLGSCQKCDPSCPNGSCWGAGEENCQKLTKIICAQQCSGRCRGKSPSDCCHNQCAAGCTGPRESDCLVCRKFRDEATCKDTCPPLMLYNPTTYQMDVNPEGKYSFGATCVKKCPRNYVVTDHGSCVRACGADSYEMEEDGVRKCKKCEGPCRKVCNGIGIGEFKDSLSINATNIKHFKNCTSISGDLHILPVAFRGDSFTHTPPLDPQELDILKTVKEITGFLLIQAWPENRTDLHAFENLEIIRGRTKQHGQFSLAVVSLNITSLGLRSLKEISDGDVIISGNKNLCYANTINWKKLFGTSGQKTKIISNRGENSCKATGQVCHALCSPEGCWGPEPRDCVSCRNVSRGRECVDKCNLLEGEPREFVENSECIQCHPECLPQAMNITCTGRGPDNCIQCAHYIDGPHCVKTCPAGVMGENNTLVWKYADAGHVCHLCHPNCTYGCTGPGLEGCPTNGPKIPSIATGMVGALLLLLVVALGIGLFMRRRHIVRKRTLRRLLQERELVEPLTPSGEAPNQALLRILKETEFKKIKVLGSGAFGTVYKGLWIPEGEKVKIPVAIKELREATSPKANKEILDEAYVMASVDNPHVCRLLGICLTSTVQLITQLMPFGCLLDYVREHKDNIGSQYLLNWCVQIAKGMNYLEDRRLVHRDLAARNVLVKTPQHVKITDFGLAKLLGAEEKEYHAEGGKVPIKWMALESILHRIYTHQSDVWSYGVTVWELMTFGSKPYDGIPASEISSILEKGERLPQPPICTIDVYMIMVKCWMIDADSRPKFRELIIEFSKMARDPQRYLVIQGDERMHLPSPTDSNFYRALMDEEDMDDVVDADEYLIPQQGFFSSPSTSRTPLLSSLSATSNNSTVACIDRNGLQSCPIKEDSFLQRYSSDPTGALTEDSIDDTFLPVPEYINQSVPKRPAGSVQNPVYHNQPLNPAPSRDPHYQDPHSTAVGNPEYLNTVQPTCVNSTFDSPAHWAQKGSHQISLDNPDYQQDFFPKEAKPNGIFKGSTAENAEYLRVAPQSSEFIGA
T4 sequence (P21802 22-821): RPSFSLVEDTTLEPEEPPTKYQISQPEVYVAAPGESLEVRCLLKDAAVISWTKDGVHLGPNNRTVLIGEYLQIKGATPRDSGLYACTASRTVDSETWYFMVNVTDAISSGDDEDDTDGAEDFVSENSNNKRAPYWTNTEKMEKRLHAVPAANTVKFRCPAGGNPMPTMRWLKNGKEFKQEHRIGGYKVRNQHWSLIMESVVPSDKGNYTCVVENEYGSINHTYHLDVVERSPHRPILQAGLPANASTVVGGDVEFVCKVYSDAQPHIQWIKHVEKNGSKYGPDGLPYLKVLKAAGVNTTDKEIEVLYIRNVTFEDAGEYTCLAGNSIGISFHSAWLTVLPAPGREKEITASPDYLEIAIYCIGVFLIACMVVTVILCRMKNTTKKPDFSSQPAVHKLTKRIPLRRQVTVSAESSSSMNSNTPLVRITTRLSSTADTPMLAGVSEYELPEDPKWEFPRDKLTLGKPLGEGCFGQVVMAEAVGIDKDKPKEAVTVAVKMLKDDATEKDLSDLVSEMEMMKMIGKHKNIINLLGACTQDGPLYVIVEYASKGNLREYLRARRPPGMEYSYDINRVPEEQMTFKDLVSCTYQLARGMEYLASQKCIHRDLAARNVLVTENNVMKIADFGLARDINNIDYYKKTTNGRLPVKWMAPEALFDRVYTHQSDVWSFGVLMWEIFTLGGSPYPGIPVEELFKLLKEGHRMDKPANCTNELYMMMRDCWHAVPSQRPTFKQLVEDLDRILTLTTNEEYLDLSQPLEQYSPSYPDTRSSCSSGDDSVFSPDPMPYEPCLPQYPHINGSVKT

Structure (SMILES)	inhibition at 0.1 µM (BRAF)	inhibition at 0.1 µM (EGFR (ErbB1))	inhibition at 0.1 µM (EGFR (ErbB1) T790M L858R)	inhibition at 0.1 µM (FGFR2)	inhibition at 0.1 µM (KDR (VEGFR2))	inhibition at 0.1 µM (PDGFRA (PDGFR alpha))	inhibition at 0.1 µM (SRC)	EC50 (A549 cell line; A549, 72 hr, MTT)	EC50 (HT29 cell line; HT-29, HT29, 72 hr, MTT)	EC50 (H1975 cell line; NCI-H1975, H1975, 72 hr, MTT)	EC50 (A549 cell line; A549, 72 h)	EC50 (HepG2 cell line; HepG2, 72 h)	EC50 (HuH7 cell line)	EC50 (HT29 cell line; HT-29, 72 h)	EC50 (BxPC-3 cell line; BXPC-3, 72 h)	EC50 (HUVEC)	EC50 (PC3 cell line)	EC50 (MDA-MB-231 cell line)	tumor growth in xenografted mice bearing human hepatocellular carcinoma tumors (HepG2 cells)	Anti-tumor activity (Tumor Growth Inhibition—TGI) (HepG2 cells)	also measured
Cc1ccc(NC(=O)c2ccc(CN3CCC(N(C)C)C3)c(C(F)(F)F)c2)cc1CNc1cnc2[nH]c(C(=O)O)cc2c1 (stereo not shown) [OR0528, 5-{5-[4-(3-Dimethylamino-pyrrolidin-1-ylmethyl)-3-trifluoromethyl-benzoylamino]-2-methyl-benzylamino}-1H-pyrrolo[2,3-b]pyridine-2-carboxylic acid]	< 50%	≥ 50%	≥ 50%	≥ 50%	≥ 50%	≥ 50%	≥ 50%	≥ 1000 nM	≥ 1000 nM	≥ 1000 nM											inhibition at 10 µM (ABL): ≥ 50%; inhibition at 10 µM (ABL T315I): ≥ 50%; EC50 (HepG2 cell line; HepG2, 72 hr, MTT): ≥ 1000 nM; EC50 (BxPC-3 cell line; BxPC-3, 72 hr, MTT): ≥ 1000 nM
CC(=O)c1cc2cc(NCc3cc(NC(=O)c4ccc(CN5CCN(C)CC5)c(C(F)(F)F)c4)ccc3C)cnc2[nH]1 [OR0720, N-{3-[(2-Acetyl-1H-pyrrolo[2,3-b]pyridin-5-ylamino)-methyl]-4-methyl-phenyl}-4-(4-methyl-piperazin-1-ylmethyl)-3-trifluoromethyl-benzamide]	≥ 50%	≥ 50%	≥ 50%	≥ 50%	≥ 50%	≥ 50%	≥ 50%				≤ 100 nM	≤ 100 nM	100 to 1000 nM	≤ 100 nM	≤ 100 nM	≤ 100 nM	≤ 100 nM	≤ 100 nM	significantly induced a decrease of tumor growth	66%*	EC50 (HuCCT1 cell line; HuCCT-1, 72 h): 100 to 1000 nM; EC50 (HuH6 Clone 5 cell line; HUH-6-clone5, 72 h): 100 to 1000 nM; EC50 (H1975 cell line; NCI-H1975, 72 h): 100 to 1000 nM; EC50 (Caki-2; CAKI-2, 72 h): 100 to 1000 nM; EC50 (HeLa cell line): 100 to 1000 nM; EC50 (HRMEC cells; 72 h): ≤ 100 nM
CC(=O)c1cc2cc(NCc3cc(NC(=O)c4cncc(C(F)(F)F)c4)ccc3C)cnc2[nH]1 [OR0721, N-{3-[(2-Acetyl-1H-pyrrolo[2,3-b]pyridin-5-ylamino)-methyl]-4-methyl-phenyl}-5-trifluoromethyl-nicotinamide]	≥ 50%	< 50%	< 50%	< 50%	≥ 50%	≥ 50%	≥ 50%	≥ 1000 nM	≥ 1000 nM	≥ 1000 nM		≤ 100 nM	100 to 1000 nM		100 to 1000 nM	100 to 1000 nM	100 to 1000 nM	100 to 1000 nM	significantly induced a decrease of tumor growth	54%*	EC50 (HuCCT1 cell line; HuCCT-1, HuCCT1, 72 hr, MTT): ≥ 1000 nM; EC50 (HuH6 Clone 5 cell line; HUH-6-clone5, HuH6 Clone 5, 72 hr, MTT): ≥ 1000 nM; EC50 (Caki-2; Caki-2, 72 hr, MTT): ≥ 1000 nM; EC50 (HRMEC cells; 72 hr, MTT): ≥ 1000 nM
CC(=O)c1cc2cc(NCc3cc(NC(=O)c4ccc(CN5CC[C@H](N(C)C)C5)c(C(F)(F)F)c4)ccc3C)cnc2[nH]1 [OR0811, N-{3-[(2-Acetyl-1H-pyrrolo[2,3-b]pyridin-5-ylamino)-methyl]-4-methyl-phenyl}-4-((S)-3-dimethylamino-pyrrolidin-1-ylmethyl)-3-trifluoromethyl-benzamide]	≥ 50%	≥ 50%		≥ 50%	≥ 50%					≥ 1000 nM	100 to 1000 nM	≤ 100 nM	100 to 1000 nM	100 to 1000 nM	100 to 1000 nM	100 to 1000 nM	100 to 1000 nM	100 to 1000 nM	significantly induced a decrease of tumor growth	75%*	EC50 (Caki-2; CAKI-2, 72 h): 100 to 1000 nM; EC50 (HRMEC cells; 72 h): 100 to 1000 nM
